Measurements as given in patent publication US20250032490A1, “THERAPEUTIC REGIMENS FOR TREATMENT OF PAROXYSMAL NOCTURNAL HEMOGLOBINURIA” (Achillion Pharmaceuticals, Inc., priority 2017, published 2025).

B1: Eculizumab: monoclonal antibody complement inhibitor of the terminal component C5; only approved therapy for PNH (antibody, chains of the INN, looked up)
heavy: QVQLVQSGAEVKKPGASVKVSCKASGYIFSNYWIQWVRQAPGQGLEWMGEILPGSGSTEYTENFKDRVTMTRDTSTSTVYMELSSLRSEDTAVYYCARYFFGSSPNWYFDVWGQGTLVTVSSASTKGPSVFPLAPCSRSTSESTAALGCLVKDYFPEPVTVSWNSGALTSGVHTFPAVLQSSGLYSLSSVVTVPSSNFGTQTYTCNVDHKPSNTKVDKTVERKCCVECPPCPAPPVAGPSVFLFPPKPKDTLMISRTPEVTCVVVDVSQEDPEVQFNWYVDGVEVHNAKTKPREEQFNSTYRVVSVLTVLHQDWLNGKEYKCKVSNKGLPSSIEKTISKAKGQPREPQVYTLPPSQEEMTKNQVSLTCLVKGFYPSDIAVEWESNGQPENNYKTTPPVLDSDGSFFLYSRLTVDKSRWQEGNVFSCSVMHEALHNHYTQKSLSLSLG
light: DIQMTQSPSSLSASVGDRVTITCGASENIYGALNWYQQKPGKAPKLLIYGATNLADGVPSRFSGSGSGTDFTLTISSLQPEDFATYYCQNVLNTPLTFGQGTKVEIKRTVAAPSVFIFPPSDEQLKSGTASVVCLLNNFYPREAKVQWKVDNALQSGNSQESVTEQDSKDSTYSLSSTLTLSKADYEKHKVYACEVTHQGLSSPVTKSFNRGEC

Columns and labels:
PNH erythrocytes = experiment: CAP-mediated hemolysis assay with PNH erythrocytes (subject A); type: cell-based, human; conditions: for Inhibition (%) of CAP activity: Compound 1 0 μM
Method: Complement-preserved normal human serum (NHS) from an individual donor of ABO blood group type AB (NHS-AB) was purchase from BioreclamationIVT (Westbury, NY). Gelatin veronal buffer (GVB), pH 7.3, without Ca^++ and Mg^++ (GVB^0) and 100 mM MgCl2 +100 mM EGTA (MgEGTA) were obtained from Complement Technology Inc. (Tyler, TX).
GVB^0·MgEGTA was prepared by mixing GVB^0 and 100 mM MgEGTA in a 9:1 ratio. PNH erythrocytes were used within five days of blood collection; before assay cells were collected by centrifugation at 800×g and 4° C. for 3 minutes and resuspended in fresh cold GVB^0·MgEGTA to a density of 5×10^8 cells/mL.
50 μL of NHS-AB was added to each well. The plates were mixed and incubated at room temperature for 5 minutes. 24 μL of this NHS-AB with compound was then transferred to duplicate wells of V-bottom microtiter plates each containing 76 μL GVB0·MgEGTA. 20 μL PNH erythrocytes was then added to each well and the plates were sealed, mixed, and incubated at 37° C. for 30 minutes with an added shaking for 15 minutes. […] Following incubation, PNH cells were removed by centrifugation at 800×g and 4° C. for 3 minutes, 100 μL supernatant per well was transferred to flat-bottom clear microtiter plates, and A405 of the supernatant was measured in a Molecular Devices Spectramax Plus plate reader.
Combinatorial interactions were analyzed via two methods.
Inhibition was analyzed by the method of Prichard and Shipman (Prichard, M. N. and C. Shipman, Jr. A Three-Dimensional Model to Analyze Drug-Drug Interactions. Antiviral Research 1990, 14:181-205) Three-dimensional surface graphs of each experiment were generated and analyzed using an Excel spreadsheet program adapted from the MacSynergy II spreadsheet (University of Alabama, Birmingham, AL). The X-axis and Y-axis of each surface graph represent the concentrations of the two test compounds, and the Z-axis represents the difference between measured inhibition and a theoretically determined additive inhibition. For an additive relationship, the surface graph resembles a horizontal plane at Z=0, whereas positive surface peaks indicate greater inhibition than expected and therefore synergy, and negative surface peaks indicate less inhibition than expected and therefore antagonism.
Synergy and antagonism volumes were calculated separately as the summed volumes of peaks respectively above and below the Z=0 plane. Volumes were determined using 95% confidence limits to assure significance.
Inhibition was analyzed by the method of Chou and Talalay (Chou, T.-C. and P. Talalay. Analysis of Combined Drug Effects: A New Look at a Very Old Problem. Trends Pharmacol. Sci. 1983, 4:450-454; Chou, T. C. Theoretical basis, experimental design, and computerized simulation of synergism and antagonism in drug combination studies. Pharmacological Reviews 2006, 58:621-681). Analysis using the median-effect equation of Chou and Talalay was performed with CompuSyn software (ComboSyn, Inc, Paramus, NJ). […] Combination index (CI) values were determined at inhibition values of 50%, 75%, and 90%.

[1] = tested on: C3 fragment deposition on rabbit erythrocytes; experiment: C3 fragment deposition on rabbit erythrocytes (flow cytometry); type: cell-based; conditions: 20% C5-depleted normal human serum; read-out: IC50, inhibition of C3 fragment deposition on rabbit erythrocytes
Method: Rabbit erythrocytes, C5-depleted normal human serum (C5-Dpl NHS), gelatin veronal buffer (GVB) without Ca^++ and Mg (GVB^0), 100 mM MgCl2+100 mM EGTA (MgEGTA) were obtained from Complement Technology Inc. (Tyler, TX). GVB^0·MgEGTA was prepared by mixing GVB^0 and 100 mM MgEGTA in a 9:1 ratio. FITC-conjugated anti-C3c antibody (cat#ab4212) and Alexa Fluor® 647-conjugated anti human CD59 antibody (cat#: ab187769) were purchased from Abcam (Cambridge, MA).
Reactions were incubated at 37° C. for 15 minutes, the reactions were quenched by addition of EDTA at a final concentration of 20 mM. Cells were stained with a FITC-conjugated anti-C3c antibody at a dilution of 1:200 and C3 fragment deposition on the surface of rabbit erythrocytes was assessed by flow cytometry with BD Accuri C6 cytometer (BD Biosciences, San Jose, CA). Forward and side scatter parameters were used to gate intact erythrocytes. Controls included cells labeled with FITC-conjugated antibody isotype control. IC50 values from each experiment were determined by curve-fitting of experimental data (the % C3 fragment-positive cells at increasing concentrations of inhibitor) to the four-parameter sigmoidal dose-response equation using non-linear regression analysis (Prism Software, GraphPad, La Jolla, CA).

[2] = tested on: C3 fragment deposition on artificial PNH cells; experiment: C3 fragment deposition on artificial PNH cells (flow cytometry); type: cell-based; conditions: 32% acidified C5-depleted normal human serum; read-out: IC50, inhibition of C3 fragment deposition on artificial PNH cells
Method: C5-depleted normal human serum (C5-Dpl NHS), gelatin veronal buffer (GVB) without Ca^++ and Mg^++ (GVB^0), 100 mM MgCl2+100 mM EGTA (MgEGTA) were obtained from Complement Technology Inc. (Tyler, TX). GVB^0·MgEGTA was prepared by mixing GVB^0 and 100 mM MgEGTA in a 9:1 ratio. FITC-conjugated anti-C3c antibody (cat #ab4212) and Alexa Fluor® 647-conjugated anti human CD59 antibody (cat #:ab187769) were purchased from Abcam (Cambridge, MA). […] Ferrone, and F. Mercuriali, The Action of Two Sulfhydryl Compounds on Normal Human Red Cells. Relationship to Red Cells of Paroxysmal Nocturnal Hemoglobinuria. Blood, 1965. 25: p. 502-10). After AET treatment, artificial PNH erythrocytes were centrifuged, supernatant was aspirated and cells were thoroughly washed with phosphate buffered saline (PBS) 3 times followed by washing with GVB^0 buffer ([…]) for additional 3 times. […] C3 fragment deposition on the surface of the erythrocytes was assessed by flow cytometry with BD Accuri C6 cytometer (BD Biosciences, San Jose, CA). […] IC50 values from each experiment were determined by curve-fitting of experimental data (the % C3 fragment-positive cells at increasing concentrations of inhibitor) to the four-parameter sigmoidal dose-response equation using non-linear regression analysis (Prism Software, GraphPad, La Jolla, CA).

| Molecule | Inhibition (%) of CAP activity (PNH erythrocytes; Experiment 2, Compstatin 0-300 μM) [%] | Inhibition (%) of CAP activity (PNH erythrocytes; Experiment #1, Compstatin 0-300 μM) [%] | inhibition at the high end of the test concentration ranges (PNH erythrocytes; single agent, PNH erythrocytes) | IC50 [1] [nM] | IC50 [2] [nM] | Inhibition (%) of CAP activity (PNH erythrocytes; Experiment 2, Eculizumab 0-400 μg/mL) [%] | Inhibition (%) of CAP activity (PNH erythrocytes; Experiment #1, Eculizumab 0-400 μg/mL) [%] |
| --- | --- | --- | --- | --- | --- | --- | --- |
| CC[C@H](C)[C@H](N)C(=O)N[C@H]1CSSC[C@@H](C(=O)N[C@H](C(N)=O)[C@@H](C)O)NC(=O)[C@H](CCCN=C(N)N)NC(=O)[C@H](Cc2cnc[nH]2)NC(=O)[C@H](Cc2cnc[nH]2)NC(=O)CNC(=O)[C@H](Cc2c[nH]c3ccccc23)NC(=O)[C@H](CC(=O)O)NC(=O)[C@H](CCC(N)=O)NC(=O)[C@H](C(C)C)NC(=O)[C@H](C(C)C)NC1=O [Compstatin, reference compound] | 0 | 0 | complete inhibition | 1400 | 2200 | – | – |
| B1 | – | – | – | – | – | 0 | 0 |
